One data set has as its target T1, cyclooxygenase-2 (Homo sapiens, UniProt P35354).
T1 construct: Cells used for whole cell assays, and from which microsomes were prepared for microsomal assays, were human osteosarcoma 143 cells; endogenous in cells; host or cells: human osteosarcoma 143 cells (whole cells or microsomes)
T1 sequence (P35354 18-604): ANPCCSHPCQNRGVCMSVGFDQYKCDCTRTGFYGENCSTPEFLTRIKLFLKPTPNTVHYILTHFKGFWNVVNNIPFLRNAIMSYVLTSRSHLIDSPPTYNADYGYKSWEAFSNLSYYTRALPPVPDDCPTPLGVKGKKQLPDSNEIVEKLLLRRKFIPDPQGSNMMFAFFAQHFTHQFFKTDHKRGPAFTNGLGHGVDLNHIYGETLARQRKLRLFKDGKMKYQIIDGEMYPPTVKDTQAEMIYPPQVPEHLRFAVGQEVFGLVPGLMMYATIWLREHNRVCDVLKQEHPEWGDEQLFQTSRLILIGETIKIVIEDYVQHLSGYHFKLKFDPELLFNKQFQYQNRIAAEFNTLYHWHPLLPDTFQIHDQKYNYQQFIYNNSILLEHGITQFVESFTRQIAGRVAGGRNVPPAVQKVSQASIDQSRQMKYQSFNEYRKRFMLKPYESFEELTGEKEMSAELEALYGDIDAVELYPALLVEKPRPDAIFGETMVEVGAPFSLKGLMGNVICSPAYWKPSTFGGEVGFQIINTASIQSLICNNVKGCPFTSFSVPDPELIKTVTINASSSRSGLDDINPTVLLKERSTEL
Put plainly: Inhibition of cyclooxygenase-2 activity (PGE2 synthesis in response to arachidonic acid, radioimmunoassay; whole cell and microsomal assays). In kind it is cell-based. The conditions noted are these: for IC50: read-out: COX-2 IC50. The procedure:
(§1) Compounds were tested as inhibitors of cyclooxygenase activity in whole cell and microsomal cyclooxygenase assays. Both of these assays measured prostaglandin E2 synthesis in response to arachidonic acid, using a radioimmunoassay. Cells used for whole cell assays, and from which microsomes were prepared for microsomal assays, were human osteosarcoma 143 cells (which specifically express cyclooxygenase-2) and human U-937 cells (which specifically express cyclooxygenase-1). In these assays, 100% activity is defined as the difference between prostaglandin E2 synthesis in the absence and presence of arachidonate addition.
(§2) In the assay, inhibition is determined by measuring the amount of prostaglandin E2 (PGE2) synthesized in the presence of arachidonic acid, cyclooxygenase-1 or cyclooxygenase-2 and a putative inhibitor.

The nature of another data set: Rat plasma levels. In kind it is in vivo.
The nature of data set [1]: Monkey pharmacokinetics (Cmax, t1/2). In kind it is in vivo.
The target of a further data set is T2, cyclooxygenase-1 (Homo sapiens, UniProt P23219).
T2 construct: human U-937 cells (which specifically express cyclooxygenase-1); endogenous in cells; host or cells: human U-937 cells (whole cells or microsomes)
T2 sequence (P23219 24-599): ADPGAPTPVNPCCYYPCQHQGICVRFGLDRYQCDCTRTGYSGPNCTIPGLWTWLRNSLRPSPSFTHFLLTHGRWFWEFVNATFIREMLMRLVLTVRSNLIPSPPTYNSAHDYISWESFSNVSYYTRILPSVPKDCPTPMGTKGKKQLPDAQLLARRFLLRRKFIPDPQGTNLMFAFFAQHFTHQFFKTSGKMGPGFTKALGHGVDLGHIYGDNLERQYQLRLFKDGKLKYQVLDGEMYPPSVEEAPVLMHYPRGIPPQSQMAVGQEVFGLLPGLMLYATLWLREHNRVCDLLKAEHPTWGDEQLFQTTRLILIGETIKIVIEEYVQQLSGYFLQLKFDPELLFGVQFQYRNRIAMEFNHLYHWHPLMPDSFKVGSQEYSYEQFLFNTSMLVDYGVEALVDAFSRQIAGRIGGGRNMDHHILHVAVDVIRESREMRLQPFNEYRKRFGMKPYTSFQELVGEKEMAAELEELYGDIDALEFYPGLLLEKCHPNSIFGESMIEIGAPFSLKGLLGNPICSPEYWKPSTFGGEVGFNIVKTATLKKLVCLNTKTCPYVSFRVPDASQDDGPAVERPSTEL
Put plainly: Inhibition of cyclooxygenase-1 activity (PGE2 synthesis in response to arachidonic acid, radioimmunoassay; whole cell and microsomal assays). Particulars: for COX-1 inhibition (result in words, with concentration): human U-937 cells, concentration stated in the cell; for IC50: table of prepared examples, read-out: COX-1 IC50. In kind it is cell-based. As for the experimental part:
as §1, §2

In a further data set the test system is paw edema. Put plainly: Rat paw edema assay (carrageenan). Particulars: po; for Rat Paw EDEMA ED30: 1 hr before carrageenan, paw volume 3 hr later; for Rat Paw Edema ED50: table of prepared examples. In kind it is in vivo. The procedure: One hr later, a line was drawn using a permanent marker at the level above the ankle in one hind paw to define the area of the paw to be monitored. The paw volume (VO) was measured using a plethysmometer (Ugo-Basile, Italy) based on the principle of water displacement. […] The animals were sacrificed by CO2 aphyxiation and the absence or presence of stomach lesions scored. Data were compared with the vehicle-control values and percent inhibition calculated. […] At least 6 animals were used at each concentration All treatment groups were coded to eliminate observer bias.
A general note: Carrageenan injected into the paw causes an acute inflammation.

Where two headings read alike, the source gives them in different places. Some results are limits rather than exact numbers.

As usually defined, the IC50 is the concentration needed to halve the response being measured. `CS(=O)(=O)Nc1cc2c(cc1Sc1ccc(Cl)cc1)C(=O)CC2` [Compound 9]: at cyclooxygenase-2 (table of prepared examples), the IC50 was 100 nM.
On the same count and under the same terms, next, `CS(=O)(=O)Nc1cc2c(cc1Oc1ccc(Br)cc1)C(=O)CC2` [Compound 2]: 9 nM.
For the compound `CS(=O)(=O)Nc1cc2c(cc1Oc1ccc(F)cc1F)C(=O)CC2` [Compound 3, Flosulide, reference compound], the “Rat Plasma Levels @ 1 hr” value in the data set “Rat plasma levels” (20 mpk) was 48 @ 20 mpk μg/ml. Besides, the “Monkey Cmax” value in data set [1] (10 mpk) is recorded as 17 @ 10 mpk μg/ml. In data set [1] (n = 2, estimated), the “t½ Monkey (n = 2) (Estimated)” value was less than 4 h. Also, at cyclooxygenase-1, the “COX-1 inhibition (result in words, with concentration)” value was “Inactive at 50 μM” and the IC50 is greater than 50000 nM. Besides, in the data set with paw edema, the “Rat Paw EDEMA ED30” value is on record as 1.1 ± .4 mpk and the “Rat Paw Edema ED50” value was 0.62 mpk.
Regarding `CS(=O)(=O)Nc1cc2c(cc1Sc1ccc(I)cc1)C(=O)CC2` [Compound 11], on cyclooxygenase-2 (table of prepared examples), the IC50 came out at 10 nM.
Same read-out and setting: as for `CS(=O)(=O)Nc1cc2c(cc1Oc1ccccc1)C(=O)CC2` [Compound 1, reference compound], the figure is 30 nM; as for `CS(=O)(=O)Nc1cc2c(cc1Sc1ccc(Cl)cc1F)C(=O)CC2` [Compound 14], 13 nM.
A word on the Cmax: it is the maximum level reached in the sampled fluid or tissue. For the compound `CS(=O)(=O)Nc1cc2c(cc1Sc1ccc(F)cc1F)C(=O)CC2` [Compound 12, 5-Methanesulfonamido-6-(2,4-difluorophenylthio)-1-indanone], in “Rat plasma levels” (10 mpk), the “Rat Plasma Levels @ 1 hr” value is on record as 70 @ 10 mpk μg/ml. Besides, the “COX-2 % INHB” value on cyclooxygenase-2 (CONC 10 nM) is reported as 43%; at cyclooxygenase-2 (CONC 100 nM), 87%; at cyclooxygenase-2 (CONC 1000 nM) it was 91%. The maximum concentration (Cmax) in data set [1] (in vivo, 5 mg/kg, 5 mpk) was found to be 35000 ng/mL. Besides, the half-life in data set [1] (in vivo, n = 2, estimated, read-out: t½ Monkey (n = 2) (Estimated)) is greater than 9 h. Moreover, the IC50 on cyclooxygenase-1 is greater than 10000 nM. Also, the “Rat Paw EDEMA ED30” value in the data set with paw edema is listed as 0.3 ± .1 mpk. Moreover, the “Rat Paw Edema ED50” value with paw edema stood at 0.3 mpk.
For `CS(=O)(=O)Nc1cc2c(cc1Sc1ccccc1)C(=O)CC2` [Compound 6], the IC50 on cyclooxygenase-2 (table of prepared examples) is 50 nM; on cyclooxygenase-1, greater than 100000 nM. Moreover, the “Rat Paw Edema ED50” value in the data set with paw edema turned out to be 0.16 mpk.
In the case of `CS(=O)(=O)Nc1cc2c(cc1Sc1ccc(F)cc1Cl)C(=O)CC2` [Compound 16], at cyclooxygenase-2 (table of prepared examples), the IC50 turned out to be 11 nM.
On to `CS(=O)(=O)Nc1cc2c(cc1Sc1ccc(F)cc1)C(=O)CC2` [Compound 8], for which the IC50 at cyclooxygenase-2 (table of prepared examples) was determined as 100 nM.
Still for that read-out and setting: next, `C=Cc1ccc(Sc2cc3c(cc2NS(C)(=O)=O)CCC3=O)cc1` [Compound 24]: 100 nM.
For `COc1ccc2c(c1)c(CC(=O)O)c(C)n2C(=O)c1ccc(Cl)cc1` [INDOMETHACIN, Indomethacin, reference compound], the “Rat Paw EDEMA ED30” value in the data set with paw edema was 1.1 ± .3 mpk.
As to `Cc1ccc(Sc2cc3c(cc2NS(C)(=O)=O)CCC3=O)cc1` [Compound 20], at cyclooxygenase-2 (table of prepared examples), the half-inhibitory concentration (IC50) is 50 nM.
Take `CS(=O)(=O)Nc1cc2c(cc1Sc1ccc(C(F)(F)F)cc1)C(=O)CC2` [Compound 22]: at cyclooxygenase-2 (table of prepared examples), the IC50 turned out to be 50 nM.
On to `CS(=O)(=O)Nc1cc2c(cc1Oc1ccc(Cl)cc1Cl)C(=O)CC2` [Compound 4, 5-Methanesulfonamido-6-(2,4-dichlorophenoxy)-1-indanone], for which, at cyclooxygenase-2 (human osteosarcoma 143 cells, PGE2 synthesis), the IC50 was 8 nM. In addition, at cyclooxygenase-1, the “COX-1 inhibition (result in words, with concentration)” value is recorded as “Inactive at 100 μM” and the IC50 was greater than 100000 nM. Moreover, in the data set with paw edema, the “Rat Paw EDEMA ED30” value is listed as 0.22 mpk and the “Rat Paw Edema ED50” value was determined as 0.22 mpk.
In the case of `Cc1ccccc1Sc1cc2c(cc1NS(C)(=O)=O)CCC2=O` [Compound 19], the IC50 on cyclooxygenase-2 (table of prepared examples) turned out to be 100 nM.

The values above are taken from patent USRE38103E1, “5-methanesulfonamido-1-indanones as an inhibitor of cyclooxygenase-2” (Merck Frosst Canada & Co., priority 1992, dated 2003).
